This experiment concerns subjects with active autoantibody-positive SLE. Description: Phase 2b study in SLE: Lupus Low Disease Activity State (LLDAS) response. Format: in vivo, human. To be noted: for percentages of LLDAS responders: Week 24; for LLDAS response at Week 24, stratified difference from placebo / percentage of subjects who achieved LLDAS response at Week 24: overall subjects; for percentage of subjects who achieved LLDAS response at Week 24: NRI, ITT. As for the experimental part: The pharmacokinetics, pharmacodynamics (PD), efficacy, and safety of oral iberdomide ((S)-3-[4-({4-[(morpholin-4-yl)methyl]phenyl}methoxy)-1-oxo-1,3-dihydro-2H-isoindol-2-yl]piperidine-2,6-dione-hydrogen chloride (1/1)) were evaluated in a phase 2b study in subjects with active autoantibody-positive SLE.
Adult SLE patients (N=288) with a ≥6-month history of SLE and SLE Disease Activity Index (SLEDAI 2K) ≥6 were randomized to placebo (n=83) or iberdomide 0.15 mg QD (n=42), 0.3 mg QD (n=82), or 0.45 mg QD (n=81). Clinical response was determined by the SLE Responder Index 4 (SRI-4) at week 24 for all patients and within pre-specified biomarker-enriched subsets based on expression of Ikaros, Aiolos, the Type 1 IFN signature (IFI27, IFI44, IFI44L, RSAD2), and other gene modules measured from fingerstick blood collected at baseline (Modular Immune Profile Test, DxTerity Diagnostics, Inc.). The primary objective of the study was to evaluate the clinical efficacy of 3 doses of iberdomide (0.45 mg once per day [QD], 0.30 mg QD, or 0.15 mg QD) compared to placebo, for the treatment of active SLE using the SLE Responder Index at Week 24.
The percentages of LLDAS responders for key mRNA and DNA subgroups were as follows: • IKZF1 high: 23.4%, 17.0%, and 14.3% for 0.45 mg, 0.30 mg, and 0.15 mg QD iberdomide, respectively, compared with 12.5% for placebo. • IKZF3 high: 27.8%, 9.4%, 14.3%, respectively, compared with 11.1% for placebo. • Type 1 IFN module high: 17.5%, 14.3%, and 24.0%, respectively, compared with 8.3% for placebo. • Ikaros IFN module high: 16.1%, 14.3%, and 20.0%, respectively, compared with 8.2% for placebo. Drug Dose, Drug Concentration, and Relationship to Response

Experimental findings from patent US12064437B2, “Methods for treating systemic lupus erythematosus and the use of biomarkers as a predictor of clinical sensitivity to therapies” (CELGENE CORPORATION, priority 2020, dated 2024) are described below.

Structures are written as SMILES.

In the case of `O=C1CC[C@H](N2Cc3c(OCc4ccc(CN5CCOCC5)cc4)cccc3C2=O)C(=O)N1` [iberdomide, (S)-3-[4-({4-[(morpholin-4-yl)methyl]phenyl}methoxy)-1-oxo-1,3-dihydro-2H-isoindol-2-yl]piperidine-2,6-dione-hydrogen chloride (1/1)], the “percentages of LLDAS responders” value is recorded as 14.3% (IKZF1 high, 0.15 mg QD); 17.0% (IKZF1 high, 0.30 mg QD); 23.4% (IKZF1 high, 0.45 mg QD); 14.3% (IKZF3 high, 0.15 mg QD); 9.4% (IKZF3 high, 0.30 mg QD); 27.8% (IKZF3 high, 0.45 mg QD). Moreover, the “percentages of LLDAS responders” value by setting is: (Ikaros IFN module high, 0.15 mg QD) 20.0%; (Ikaros IFN module high, 0.30 mg QD) 14.3%; (Ikaros IFN module high, 0.45 mg QD) 16.1%; (Type 1 IFN module high, 0.15 mg QD) 24.0%; (Type 1 IFN module high, 0.30 mg QD) 14.3%; (Type 1 IFN module high, 0.45 mg QD) 17.5%. Moreover, the “LLDAS response at Week 24, stratified difference from placebo” value (0.15 mg QD) was determined as 6.7% and the “LLDAS response at Week 24, stratified difference from placebo” value (0.45 mg QD) is recorded as 6.9%. Moreover, the “percentage of subjects who achieved LLDAS response at Week 24” value is given as 19.0% (0.15 mg QD), 17.1% (0.30 mg QD) and 19.8% (0.45 mg QD).
